Assay: on-resin lactamisation, Asp side-chain COOH (C-terminal residue, anchored via Rink amide) + alpha-NH2 of N-terminal Dap(Boc); HATU/DIEA 1.05:2.1 equiv, overnight; then TFA cleavage
Conditions: NMP, 57.0 mM; for ring closure, product found: scale: 1 = cyclic product is largest ESI-MS signal, 0 = linear; for ring closure, conversion by HPLC: scale: % crude HPLC purity, 320 nm area of tallest peak or peak cluster
[1] = from CC(C)(C)OC(=O)NC[C@H](N)C(=O)N[C@@H](CNC(=O)c1cnc2ccccc2n1)C(=O)N[C@@H](CNC(=O)c1cnc2ccccc2n1)C(=O)N[C@@H](CNC(=O)c1cnc2ccccc2n1)C(=O)NCC(=O)NCC(=O)N[C@@H](CC(=O)O)C(N)=O, 22-membered ring
[2] = from CC(C)(C)OC(=O)NC[C@H](N)C(=O)N[C@@H](CNC(=O)c1cnc2ccccc2n1)C(=O)NCC(=O)NCC(=O)NCC(=O)N[C@@H](CNC(=O)c1cnc2ccccc2n1)C(=O)N[C@@H](CC(=O)O)C(N)=O, 22-membered ring
[3] = from CC(C)(C)OC(=O)NC[C@H](N)C(=O)NCC(=O)N[C@@H](CNC(=O)c1cnc2ccccc2n1)C(=O)NCC(=O)N[C@@H](CNC(=O)c1cnc2ccccc2n1)C(=O)NCC(=O)N[C@@H](CC(=O)O)C(N)=O, 22-membered ring
[4] = from CC(C)(C)OC(=O)NC[C@H](N)C(=O)N[C@@H](CNC(=O)c1cnc2ccccc2n1)C(=O)NCC(=O)N[C@@H](CNC(=O)c1cnc2ccccc2n1)C(=O)NCC(=O)NCC(=O)N[C@@H](CC(=O)O)C(N)=O, 22-membered ring
[5] = from CC(C)(C)OC(=O)NC[C@H](N)C(=O)N[C@@H](CNC(=O)c1cnc2ccccc2n1)C(=O)NCC(=O)N[C@@H](CNC(=O)c1cnc2ccccc2n1)C(=O)N[C@@H](CNC(=O)c1cnc2ccccc2n1)C(=O)NCC(=O)N[C@@H](CC(=O)O)C(N)=O, 22-membered ring
[6] = from CC(C)(C)OC(=O)NC[C@H](N)C(=O)N[C@@H](CNC(=O)c1cnc2ccccc2n1)C(=O)NCC(=O)NCC(=O)N[C@@H](CNC(=O)c1cnc2ccccc2n1)C(=O)N[C@@H](CNC(=O)c1cnc2ccccc2n1)C(=O)N[C@@H](CC(=O)O)C(N)=O, 22-membered ring
[7] = from CC(C)(C)OC(=O)NC[C@H](N)C(=O)N[C@@H](CNC(=O)c1cnc2ccccc2n1)C(=O)N[C@@H](CNC(=O)c1cnc2ccccc2n1)C(=O)NCC(=O)NCC(=O)NCC(=O)N[C@@H](CC(=O)O)C(N)=O, 22-membered ring
[8] = from CC(C)(C)OC(=O)NC[C@H](N)C(=O)NCC(=O)NCC(=O)N[C@@H](CNC(=O)c1cnc2ccccc2n1)C(=O)N[C@@H](CNC(=O)c1cnc2ccccc2n1)C(=O)NCC(=O)N[C@@H](CC(=O)O)C(N)=O, 22-membered ring
[9] = from CC(C)(C)OC(=O)NC[C@H](N)C(=O)N[C@@H](CNC(=O)c1cnc2ccccc2n1)C(=O)N[C@@H](CNC(=O)c1cnc2ccccc2n1)C(=O)NCC(=O)N[C@@H](CNC(=O)c1cnc2ccccc2n1)C(=O)NCC(=O)N[C@@H](CC(=O)O)C(N)=O, 22-membered ring
[10] = from CC(C)(C)OC(=O)NC[C@H](N)C(=O)NCC(=O)NCC(=O)N[C@@H](CNC(=O)c1cnc2ccccc2n1)C(=O)NCC(=O)NCC(=O)N[C@@H](CC(=O)O)C(N)=O, 22-membered ring

NC[C@@H]1NC(=O)C[C@@H](C(N)=O)NC(=O)CNC(=O)CNC(=O)[C@H](CNC(=O)c2cnc3ccccc3n2)NC(=O)[C@H](CNC(=O)c2cnc3ccccc3n2)NC(=O)[C@H](CNC(=O)c2cnc3ccccc3n2)NC1=O
ring closure, product found [1]: 1 | ring closure, conversion by HPLC [1]: 25

NC[C@@H]1NC(=O)C[C@@H](C(N)=O)NC(=O)[C@H](CNC(=O)c2cnc3ccccc3n2)NC(=O)CNC(=O)CNC(=O)CNC(=O)[C@H](CNC(=O)c2cnc3ccccc3n2)NC1=O
ring closure, product found [2]: 1 | ring closure, conversion by HPLC [2]: 64

NC[C@@H]1NC(=O)C[C@@H](C(N)=O)NC(=O)CNC(=O)[C@H](CNC(=O)c2cnc3ccccc3n2)NC(=O)CNC(=O)[C@H](CNC(=O)c2cnc3ccccc3n2)NC(=O)CNC1=O
ring closure, product found [3]: 1 | ring closure, conversion by HPLC [3]: 79

NC[C@@H]1NC(=O)C[C@@H](C(N)=O)NC(=O)CNC(=O)CNC(=O)[C@H](CNC(=O)c2cnc3ccccc3n2)NC(=O)CNC(=O)[C@H](CNC(=O)c2cnc3ccccc3n2)NC1=O
ring closure, product found [4]: 1 | ring closure, conversion by HPLC [4]: 39

NC[C@@H]1NC(=O)C[C@@H](C(N)=O)NC(=O)CNC(=O)[C@H](CNC(=O)c2cnc3ccccc3n2)NC(=O)[C@H](CNC(=O)c2cnc3ccccc3n2)NC(=O)CNC(=O)[C@H](CNC(=O)c2cnc3ccccc3n2)NC1=O
ring closure, product found [5]: 1 | ring closure, conversion by HPLC [5]: 81

NC[C@@H]1NC(=O)C[C@@H](C(N)=O)NC(=O)[C@H](CNC(=O)c2cnc3ccccc3n2)NC(=O)[C@H](CNC(=O)c2cnc3ccccc3n2)NC(=O)CNC(=O)CNC(=O)[C@H](CNC(=O)c2cnc3ccccc3n2)NC1=O
ring closure, product found [6]: 0 | ring closure, conversion by HPLC [6]: < 30

NC[C@@H]1NC(=O)C[C@@H](C(N)=O)NC(=O)CNC(=O)[C@H](CNC(=O)c2cnc3ccccc3n2)NC(=O)CNC(=O)[C@H](CNC(=O)c2cnc3ccccc3n2)NC1=O [H-Dap(Boc)-Dap(Qxc)-Gly-Dap(Qxc)-Gly-Asp(OH)-NH-Rink resin]
ring closure, product found (from CC(C)(C)OC(=O)NC[C@H](N)C(=O)N[C@@H](CNC(=O)c1cnc2ccccc2n1)C(=O)NCC(=O)N[C@@H](CNC(=O)c1cnc2ccccc2n1)C(=O)NCC(=O)N[C@@H](CC(=O)O)C(N)=O, 19-membered ring): 1

NC[C@@H]1NC(=O)C[C@@H](C(N)=O)NC(=O)CNC(=O)CNC(=O)CNC(=O)[C@H](CNC(=O)c2cnc3ccccc3n2)NC(=O)[C@H](CNC(=O)c2cnc3ccccc3n2)NC1=O
ring closure, product found [7]: 1 | ring closure, conversion by HPLC [7]: 35

NC[C@@H]1NC(=O)C[C@@H](C(N)=O)NC(=O)CNC(=O)[C@H](CNC(=O)c2cnc3ccccc3n2)NC(=O)[C@H](CNC(=O)c2cnc3ccccc3n2)NC(=O)CNC(=O)CNC1=O
ring closure, product found [8]: 1 | ring closure, conversion by HPLC [8]: 60

NC[C@@H]1NC(=O)C[C@@H](C(N)=O)NC(=O)CNC(=O)[C@H](CNC(=O)c2cnc3ccccc3n2)NC(=O)CNC(=O)[C@H](CNC(=O)c2cnc3ccccc3n2)NC(=O)[C@H](CNC(=O)c2cnc3ccccc3n2)NC1=O
ring closure, product found [9]: 1 | ring closure, conversion by HPLC [9]: 49

NC[C@@H]1NC(=O)C[C@@H](C(N)=O)NC(=O)CNC(=O)CNC(=O)[C@H](CNC(=O)c2cnc3ccccc3n2)NC(=O)CNC(=O)CNC1=O [H-Dap(Boc)-Gly-Gly-Dap(Qxc)-Gly-Gly-Asp(OH)-NH-Rink resin]
ring closure, product found [10]: 1 | ring closure, conversion by HPLC [10]: 84

From publication PMC6208650
